Results as given in the supplement of paper PMC4862054.

Key:
Details in all cases: incubation time: 72 h
MDA-MB-436 [1] = assay: normalised response (% of control), CellTiter-Glo; higher = more viable cells (100 = DMSO, 0 = benzethonium chloride kill control)
Summary of the method: (§1)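 Breast cancer cell lines (20 µl suspension) were seeded into 384-well plates holding compound at 5 concentrations in 10-fold steps over a compound-specific 10,000-fold range, then incubated 72 h. CellTox Green fluorescence (485/520 nm) was read first, then CellTiter-Glo luminescence after 10 min at room temperature. Each plate was normalised to 0.1 % DMSO (100) and a positive kill control (0). Each value is the normalised signal at a single concentration of the series.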

DU-4475 [2] = assay: as above
Summary of the method: as §1

HDQ-P1 [3] = assay: as above
Summary of the method: as §1

SK-BR-3 = assay: as above
Summary of the method: as §1

MDA-MB-468 [4] = assay: as above
Summary of the method: as §1

MDA-MB-453 [5] = assay: as above
Summary of the method: as §1

CAL-120 [6] = assay: as above
Summary of the method: as §1

CAL-148 [7] = assay: as above
Summary of the method: as §1

CAL-51 [8] = assay: as above
Summary of the method: as §1

MDA-MB-231 [9] = assay: as above
Summary of the method: as §1

Hs578T [10] = assay: as above
Summary of the method: as §1

MCF-10A [11] = assay: as above
Summary of the method: as §1

BT-474 [12] = assay: as above
Summary of the method: as §1

BT-549 [13] = assay: as above
Summary of the method: as §1

MFM-223 [14] = assay: as above
Summary of the method: as §1

HCC1937 [15] = assay: as above
Summary of the method: as §1

HCC1599 [16] = assay: as above
Summary of the method: as §1

CAL-85-1 [17] = assay: as above
Summary of the method: as §1

HCC1143 [18] = assay: as above
Summary of the method: as §1

MDA-MB-436 [19] = assay: normalised response (% of control), CellTox Green; higher = less cell death (100 = DMSO, 0 = benzethonium chloride kill control)
Summary of the method: as §1

DU-4475 [20] = assay: as above
Summary of the method: as §1

HDQ-P1 [21] = assay: as above
Summary of the method: as §1

MDA-MB-468 [22] = assay: as above
Summary of the method: as §1

MDA-MB-453 [23] = assay: as above
Summary of the method: as §1

CAL-120 [24] = assay: as above
Summary of the method: as §1

CAL-148 [25] = assay: as above
Summary of the method: as §1

CAL-51 [26] = assay: as above
Summary of the method: as §1

MDA-MB-231 [27] = assay: as above
Summary of the method: as §1

Hs578T [28] = assay: as above
Summary of the method: as §1

MCF-10A [29] = assay: as above
Summary of the method: as §1

BT-474 [30] = assay: as above
Summary of the method: as §1

BT-549 [31] = assay: as above
Summary of the method: as §1

MFM-223 [32] = assay: as above
Summary of the method: as §1

HCC1937 [33] = assay: as above
Summary of the method: as §1

HCC1599 [34] = assay: as above
Summary of the method: as §1

CAL-85-1 [35] = assay: as above
Summary of the method: as §1

HCC1143 [36] = assay: as above
Summary of the method: as §1

SMILES	normalised response (MDA-MB-436 [1]) [%]	normalised response (DU-4475 [2]) [%]	normalised response (HDQ-P1 [3]) [%]	normalised response (SK-BR-3) [%]	normalised response (MDA-MB-468 [4]) [%]	normalised response (MDA-MB-453 [5]) [%]	normalised response (CAL-120 [6]) [%]	normalised response (CAL-148 [7]) [%]	normalised response (CAL-51 [8]) [%]	normalised response (MDA-MB-231 [9]) [%]	normalised response (Hs578T [10]) [%]	normalised response (MCF-10A [11]) [%]	normalised response (BT-474 [12]) [%]	normalised response (BT-549 [13]) [%]	normalised response (MFM-223 [14]) [%]	normalised response (HCC1937 [15]) [%]	normalised response (HCC1599 [16]) [%]	normalised response (CAL-85-1 [17]) [%]	normalised response (HCC1143 [18]) [%]	normalised response (MDA-MB-436 [19]) [%]	normalised response (DU-4475 [20]) [%]	normalised response (HDQ-P1 [21]) [%]	normalised response (MDA-MB-468 [22]) [%]	normalised response (MDA-MB-453 [23]) [%]	normalised response (CAL-120 [24]) [%]	normalised response (CAL-148 [25]) [%]	normalised response (CAL-51 [26]) [%]	normalised response (MDA-MB-231 [27]) [%]	normalised response (Hs578T [28]) [%]	normalised response (MCF-10A [29]) [%]	normalised response (BT-474 [30]) [%]	normalised response (BT-549 [31]) [%]	normalised response (MFM-223 [32]) [%]	normalised response (HCC1937 [33]) [%]	normalised response (HCC1599 [34]) [%]	normalised response (CAL-85-1 [35]) [%]	normalised response (HCC1143 [36]) [%]
CC(C)C[C@@H](C(=O)N[C@H](C(=O)OC1CCCC1)c1ccccc1)[C@H](O)C(=O)NO [Tosedostat] (100 nM)	89	91.8	90.3	82.8	60.2	64.5	79.6	94.2	77.9	70.2	91.2	101	59.1	70	90.7	77.5	85.1	74.4	83.5	68.7	102	76.4	-23.4	102	78.6	81.6	53	30.6	81.3	76	102	72.1	84	91	104	62.7	86.2
COc1cc2c(NC3CCN(C(C)C)CC3)nc(N3CCC(F)(F)CC3)nc2cc1OCCCN1CCCC1 [UNC0642] (100 nM)	97.9	89.9	99.6	96	105	108	92	96.5	97.9	95	98.6	94.8	103	96.5	96.2	90.3	93.7	98.5	96.1	63.9	97.5	80.7	131	108	101	89.8	98.1	107	90.2	99.4	100	101	101	72.7	99.2	105	65.3
COCC[n+]1c2c(n(Cc3cnccn3)c1C)C(=O)c1ccccc1C2=O [YM155] (100 nM)	1.98	20.4	1.96	4.6	0.08	27.8	-0.1	0.53	2.89	1.55	62	6.51	5.9	36.9	26.2	0.92	9.07	-0.47	1.4	19.2	92.8	-5.41	-69.5	87.8	-16.3	18.9	21.2	0.07	106	-8.31	-29.1	88.9	70.4	22.8	71.7	-130	75.2
